Each structure is given as a SMILES string. Where only a bound is given, the exact number is not on record here.

The record followed here is patent US20100249145A1, “Inhibitors of VEGF Receptor and HGF Receptor Signaling” (Methylgene, Inc., priority 2005, published 2010).

In one test the test system is DU145. Kind of test: DU145 scattering inhibition (HGF dependent scattering). It is filed as cell-based. As to conditions: Homo sapiens, DU-145, Table 31, read-out: DU145 scattering inhib IC50. From the text: (§1) HGF has well known activity in terms of inducing scattering and migration (wound healing) (Wells et al., Cell Motil Cytoskeleton. 2005 November 62(3):180-94; Miura et al., Urology 2001 December 58(6):1064-9; Nishimura et al., Int J. Urol. 1998 May 5(3):276-81; Wang et al., Mol Cancer Ther. 2003 November; 2(11):1085-92; and Christensen et al., Cancer Res. 2003 Nov. 1; 63(21):7345-55).

For the next test, the target named is T1, VEGF receptor KDR (Homo sapiens, UniProt P35968).
T1 construct: made in house; host or cells: Sf9 cells (Spodoptera frugiperda), recombinant baculovirus
T1 sequence (P35968 806-1356): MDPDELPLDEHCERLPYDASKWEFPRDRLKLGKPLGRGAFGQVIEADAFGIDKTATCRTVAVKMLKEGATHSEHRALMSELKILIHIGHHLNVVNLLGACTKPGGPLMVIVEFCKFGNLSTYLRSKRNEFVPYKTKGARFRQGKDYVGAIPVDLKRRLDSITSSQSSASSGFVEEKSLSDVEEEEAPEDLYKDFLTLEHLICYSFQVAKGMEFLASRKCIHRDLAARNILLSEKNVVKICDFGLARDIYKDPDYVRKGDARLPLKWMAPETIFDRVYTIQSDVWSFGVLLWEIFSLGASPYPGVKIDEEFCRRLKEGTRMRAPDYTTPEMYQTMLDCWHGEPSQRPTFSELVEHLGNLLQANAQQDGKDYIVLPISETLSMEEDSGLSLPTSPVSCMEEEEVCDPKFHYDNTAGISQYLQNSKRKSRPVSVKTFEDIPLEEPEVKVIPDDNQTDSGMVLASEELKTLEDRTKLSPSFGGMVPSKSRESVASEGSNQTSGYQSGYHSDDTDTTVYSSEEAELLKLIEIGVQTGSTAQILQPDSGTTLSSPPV
Kind of test: In vitro receptor tyrosine kinase assay (DELFIA), VEGF receptor KDR. To be noted: Table 31; ATP 0.6 uM, enzyme 5 nM; read-out: VEGFR IC50. The format is biochemical. The text has this:
In Vitro Receptor Tyrosine Kinase Assays (c-Met/HGF receptor and VEGF Receptor KDR)
In the case of VEGF receptor KDR a 1.6-kb cDNA corresponding to the catalytic domain of VEGFR2 or KDR (Genbank accession number AF035121 amino acid 806 to 1356) was cloned into the Pst I site of the pDEST20 Gateway vector (Invitrogen) for the production of a GST-tagged version of that enzyme.
The GST-VEGFR2806-1356 protein was expressed in Sf9 cells (Spodoptera frugiperda) upon infection with recombinant baculovirus construct.
The supernatant was loaded onto a GST-agarose column (Sigma) equilibrated with PBS pH 7.3. Following a four column volume (CV) wash with PBS pH 7.3+1% Triton X-100 and 4 CV wash with buffer B (50 mM Tris pH 8.0, 20% glycerol and 100 mM NaCl), bound proteins were step eluted with 5 CV of buffer B supplemented with 5 mM DTT and 15 mM glutathion. […] Final GST-VEGFR2806-1356 protein preparations concentrations were about 0.7 mg/ml with purity approximating 70%.

The next test has as its system A549. Kind of test: A549 wound healing inhibition (HGF dependent migration). It is filed as cell-based. As to conditions: Homo sapiens, Table 31, read-out: A549 wound healing inbib IC50.
Text: as §1

Test [1] deals with T2, recombinant human c-Met/HGF receptor (Homo sapiens, UniProt P08581).
T2 construct: His tag (histidine tag from pBlueBacHis2A); made in house; host or cells: Hi-5 cells (Trichoplusia ni), recombinant baculovirus
T2 sequence (P08581 1078-1337): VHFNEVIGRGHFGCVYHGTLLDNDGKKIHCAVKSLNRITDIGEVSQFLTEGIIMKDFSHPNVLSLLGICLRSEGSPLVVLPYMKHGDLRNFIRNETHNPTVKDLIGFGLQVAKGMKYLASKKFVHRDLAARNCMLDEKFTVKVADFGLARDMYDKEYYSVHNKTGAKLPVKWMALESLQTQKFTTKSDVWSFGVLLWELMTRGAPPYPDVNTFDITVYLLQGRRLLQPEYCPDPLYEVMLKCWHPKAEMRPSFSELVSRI
Kind of test: In vitro receptor tyrosine kinase assay (DELFIA), c-Met/HGF receptor. As to conditions: Table 31; ATP 10 uM, enzyme 25 nM; read-out: CMet ic50. The format is biochemical.

`Cc1ccccc1CC(=O)NC(=S)Nc1ccc(Oc2ccnc3cc(-c4nccn4C)sc23)c(F)c1`: the IC50 in the test on DU145 is less than 1000 nM; at VEGF receptor KDR, less than 50 nM; with A549, less than 1000 nM; in test [1] it was less than 50 nM.

Consider `C#Cc1ccc(F)c(CC(=O)NC(=S)Nc2ccc(Oc3ccnc4cc(-c5nccn5C)sc34)c(F)c2)c1`, for which the half-maximal inhibitory concentration (IC50) with DU145 is 1000 to 5000 nM; at VEGF receptor KDR it was less than 50 nM; with A549 it was 1000 to 5000 nM; in test [1] it was less than 50 nM.

For `C#Cc1cccc(CC(=O)NC(=S)Nc2ccc(Oc3ccnc4cc(-c5cn(C)cn5)sc34)c(F)c2)c1`, the IC50 with DU145 was 1000 to 5000 nM; on VEGF receptor KDR, less than 50 nM; in the test with A549, 1000 to 5000 nM; in test [1] it was less than 50 nM.

Turning to `C#Cc1cc(F)ccc1CC(=O)NC(=S)Nc1ccc(Oc2ccnc3cc(-c4ccc(CN5CCN(C)CC5)cc4)sc23)c(F)c1`, the concentration for half-maximal inhibition (IC50) in the test with DU145 is less than 1000 nM; at VEGF receptor KDR, less than 50 nM; in the test on A549, 1000 to 5000 nM; in test [1], less than 50 nM.

On to `CN1CCN(Cc2ccc(-c3cc4nccc(Oc5ccc(NC(=S)NC(=O)Cc6ccccc6)cc5F)c4s3)nc2)CC1`, for which the IC50 in the test with DU145 is less than 1000 nM; at VEGF receptor KDR it was less than 50 nM; in the test with A549 it was less than 1000 nM; in test [1], less than 50 nM.

As for `C#Cc1ccccc1CC(=O)NC(=S)Nc1ccc(Oc2ccnc3cc(-c4cn(CCN5CCCC5)cn4)sc23)c(F)c1`, the IC50 in the test with DU145 is less than 1000 nM; at VEGF receptor KDR it was less than 50 nM; with A549 it was less than 1000 nM; in test [1], less than 50 nM.

Consider `C#Cc1ccccc1CC(=O)NC(=S)Nc1ccc(Oc2ccnc3cc(-c4nccn4C)sc23)c(F)c1`, for which the concentration for half-maximal inhibition (IC50) in the test on DU145 is less than 1000 nM; at VEGF receptor KDR, less than 50 nM; with A549, less than 1000 nM; in test [1] it was less than 50 nM.

Consider `Cn1ccnc1-c1cc2nccc(Oc3ccc(NC(=S)NC(=O)Cc4ccc(F)cc4)cc3F)c2s1`, for which the half-maximal inhibitory concentration (IC50) in the test on DU145 was less than 1000 nM; on VEGF receptor KDR, less than 50 nM; in the test with A549, less than 1000 nM; in test [1], less than 50 nM.

For `Cc1ccccc1CC(=O)NC(=S)Nc1ccc(Oc2ccnc3cc(C4=CCN(C)CC4)sc23)c(F)c1`, the IC50 with DU145 is less than 1000 nM; at VEGF receptor KDR it was 250 to 500 nM; in the test on A549 it was less than 1000 nM; in test [1], less than 50 nM.

As to `C#Cc1ccccc1CC(=O)NC(=S)Nc1ccc(Oc2ccnc3cc(-c4nccn4CC)sc23)c(F)c1`, the IC50 was less than 1000 nM in the test with DU145, less than 50 nM on VEGF receptor KDR, less than 1000 nM with A549 and less than 50 nM in test [1].

For `C#Cc1cc2nccc(Oc3ccc(NC(=S)NC(=O)Cc4ccccc4)cc3F)c2s1`, the IC50 was 1000 to 5000 nM with DU145, greater than 500 nM at VEGF receptor KDR, greater than 10000 nM in the test with A549 and 50 to 250 nM in test [1].

Regarding `C#Cc1ccccc1CC(=O)NC(=S)Nc1ccc(Oc2ccnc3cc(-c4ccc(CNCCOC)cn4)sc23)c(F)c1`, the concentration for half-maximal inhibition (IC50) with DU145 was less than 1000 nM; at VEGF receptor KDR, less than 50 nM; in the test with A549, less than 1000 nM; in test [1] it was less than 50 nM.

Regarding `C#Cc1ccc(CC(=O)NC(=S)Nc2ccc(Oc3ccnc4cc(-c5cn(CC)cn5)sc34)c(F)c2)cc1F`, the concentration for half-maximal inhibition (IC50) is 1000 to 5000 nM in the test on DU145, less than 50 nM on VEGF receptor KDR, greater than 10000 nM in the test with A549 and 50 to 250 nM in test [1].

Turning to `C#Cc1cc(F)ccc1CC(=O)NC(=S)Nc1ccc(Oc2ccnc3cc(-c4cn(CCN5CCCC5)cn4)sc23)c(F)c1`, the concentration for half-maximal inhibition (IC50) is less than 1000 nM in the test on DU145, less than 50 nM on VEGF receptor KDR, less than 1000 nM in the test with A549 and less than 50 nM in test [1].

As to `CN1CC=C(c2cc3nccc(Oc4ccc(NC(=S)NC(=O)Cc5ccccc5)cc4F)c3s2)CC1`, the half-maximal inhibitory concentration (IC50) was less than 1000 nM in the test on DU145, 250 to 500 nM on VEGF receptor KDR, less than 1000 nM with A549 and less than 50 nM in test [1].

With `COc1cccc(Nc2cc3nccc(Oc4ccc(NC(=S)NC(=O)Cc5ccccc5OC)cc4F)c3s2)c1`, the concentration for half-maximal inhibition (IC50) was 1000 to 5000 nM in the test on DU145, greater than 500 nM at VEGF receptor KDR, 1000 to 5000 nM in the test on A549 and 50 to 250 nM in test [1].

For `C#Cc1ccccc1CC(=O)NC(=S)Nc1ccc(Oc2ccnc3cc(-c4cccc[n+]4[O-])sc23)c(F)c1`, the half-inhibitory concentration (IC50) was less than 1000 nM in the test on DU145, less than 50 nM on VEGF receptor KDR, less than 1000 nM with A549 and less than 50 nM in test [1].

As to `O=C(Cc1ccccc1)NC(=S)Nc1ccc(Oc2ccnc3cc(-c4cccc[n+]4[O-])sc23)c(F)c1`, the IC50 is less than 1000 nM with DU145, 50 to 250 nM at VEGF receptor KDR, less than 1000 nM in the test with A549 and less than 50 nM in test [1].

`C#Cc1ccc(CC(=O)NC(=S)Nc2ccc(Oc3ccnc4cc(-c5ccc(CN(C)CCO)cc5)sc34)c(F)c2)cc1`: the half-inhibitory concentration (IC50) is greater than 10000 nM in the test on DU145, less than 50 nM at VEGF receptor KDR, greater than 10000 nM with A549 and 50 to 250 nM in test [1].

Consider `COCCNCc1ccc(-c2cc3nccc(Oc4ccc(NC(=S)NC(=O)Cc5ccc(F)cc5)cc4F)c3s2)cc1`, for which the IC50 with DU145 was less than 1000 nM; at VEGF receptor KDR, less than 50 nM; in the test with A549, less than 1000 nM; in test [1] it was less than 50 nM.

For `Cn1cnc(-c2cc3nccc(Nc4ccc(NC(=S)NC(=O)Cc5ccccc5)cc4F)c3s2)c1`, the 50% inhibitory concentration (IC50) with DU145 was less than 1000 nM; on VEGF receptor KDR it was greater than 500 nM; in the test with A549, less than 1000 nM; in test [1], less than 50 nM.

Consider `O=C(Cc1ccc(F)cc1)NC(=S)Nc1ccc(Oc2ccnc3cc(-c4cc[n+]([O-])cc4)sc23)c(F)c1`, for which the IC50 is less than 1000 nM with DU145, 50 to 250 nM on VEGF receptor KDR, less than 1000 nM in the test with A549 and less than 50 nM in test [1].

`C#Cc1ccc(CC(=O)NC(=S)Nc2ccc(Oc3ccnc4cc(-c5nccn5C)sc34)c(F)c2)cc1`: the IC50 is greater than 10000 nM with DU145, 50 to 250 nM at VEGF receptor KDR, 1000 to 5000 nM in the test on A549 and 50 to 250 nM in test [1].

As for `Cn1cnc(-c2cc3nccc(Oc4ccc(NC(=S)NC(=O)Cc5ccc(F)cc5)cc4F)c3s2)c1` [drawing 440], the half-inhibitory concentration (IC50) was less than 1000 nM in the test with DU145, less than 50 nM at VEGF receptor KDR, less than 1000 nM in the test on A549 and less than 50 nM in test [1].

Turning to `CN1CCN(CCN(C)Cc2ccc(-c3cc4nccc(Oc5ccc(NC(=S)NC(=O)Cc6ccccc6)cc5F)c4s3)cc2)CC1`, the concentration for half-maximal inhibition (IC50) in the test with DU145 is less than 1000 nM; on VEGF receptor KDR it was less than 50 nM; with A549 it was less than 1000 nM; in test [1], less than 50 nM.

Turning to `CC(C(=O)NC(=S)Nc1ccc(Oc2ccnc3cc(-c4nccn4C)sc23)c(F)c1)c1ccccc1` (centres unmarked), the IC50 in the test on DU145 is less than 1000 nM; at VEGF receptor KDR, 50 to 250 nM; in the test on A549 it was less than 1000 nM; in test [1], 50 to 250 nM.

In the case of `C#Cc1ccccc1CC(=O)NC(=S)Nc1ccc(Oc2ccnc3cc(C4=CCN(C)CC4)sc23)c(F)c1`, the concentration for half-maximal inhibition (IC50) is less than 1000 nM in the test with DU145, 50 to 250 nM at VEGF receptor KDR, less than 1000 nM with A549 and less than 50 nM in test [1].

Regarding `C#Cc1ccccc1CC(=O)NC(=S)Nc1ccc(Oc2ccnc3cc(-c4cn(CC)cn4)sc23)c(F)c1` [drawing 455], the IC50 is less than 1000 nM in the test on DU145, less than 50 nM on VEGF receptor KDR, less than 1000 nM with A549 and less than 50 nM in test [1].

Consider `C#Cc1cccc(F)c1CC(=O)NC(=S)Nc1ccc(Oc2ccnc3cc(-c4cn(C)cn4)sc23)c(F)c1`, for which the IC50 with DU145 was less than 1000 nM; on VEGF receptor KDR, less than 50 nM; in the test with A549, less than 1000 nM; in test [1], less than 50 nM.
